Converted amounts (≈) assume the structure as drawn. Like-named read-outs stand apart in the source and are kept apart here.
How the values were obtained:
Bord. bronchiseptica B09 = assay: MIC against veterinary bacteria in vitro; conditions: Bordetella bronchiseptica, B09, 18 h
Method: (§1) The activity of the compounds of the Examples against various veterinarily important bacteria, was assayed in vitro using two-fold serial dilutions in Diagnostic Sensitivity Test Agar inoculated with 10^4 organisms.

[1] = system: M. suipneumoniae NCTC 10110; assay: MIC against mycoplasma in vitro; type: cell-based; conditions: Mesomycoplasma hyopneumoniae, NCTC10110, 144 h
[2] = system: Pasteurella multocida 1633; assay: MIC against human bacteria in vitro; type: cell-based; conditions: Pasteurella multocida 1633; 5% chocolated horse blood agar, 18 hours; read-out: MIC
[3] = system: Staph. aureus 152 (pen. sens); assay: MIC against veterinary bacteria in vitro; conditions: Staphylococcus aureus, 18 h
Method: as §1

[4] = system: Ps. aeruginosa NCTC 10662; assay: MIC against human bacteria in vitro; type: cell-based; conditions: Pseudomonas aeruginosa, NCTC10662; Ps. aeruginosa NCTC 10662; 5% chocolated horse blood agar, 18 hours; read-out: MIC
M. pneumoniae ATCC 15492 = assay: MIC against mycoplasma in vitro; type: cell-based; conditions: Mycoplasmoides pneumoniae, ATCC15492, 144 h; M. pneumoniae ATCC 15492; 6 days, 37° C.; read-out: MIC
[5] = system: Erysipelothrix rhusiopathiae NCTC 8163; assay: MIC against veterinary bacteria in vitro; conditions: Erysipelothrix rhusiopathiae, NCTC8163, 18 h
Method: as §1

Staph. aureus Russell = assay: MIC against human bacteria in vitro; type: cell-based; conditions: Staphylococcus aureus; Staph. aureus Russell; 5% chocolated horse blood agar, 18 hours; read-out: MIC
Strep. pneumoniae CN33 = assay: MIC against human bacteria in vitro; type: cell-based; conditions: Streptococcus pneumoniae
M. gallisepticum S6 = assay: MIC against mycoplasma in vitro; type: cell-based; conditions: Mycoplasmoides gallisepticum, 144 h; M. gallisepticum S6; 6 days, 37° C.; read-out: MIC
Staph. aureus Oxford = assay: MIC against veterinary bacteria in vitro; conditions: Staphylococcus aureus, 18 h
Method: as §1

E. coli ESS = assay: MIC against human bacteria in vitro; type: cell-based; conditions: Escherichia coli
M. suipneumoniae MS 16 = assay: MIC against mycoplasma in vitro; type: cell-based; conditions: Mesomycoplasma hyopneumoniae, MS16, 144 h
M. suipneumoniae HK(2) = assay: MIC against mycoplasma in vitro; type: cell-based; conditions: Mesomycoplasma hyopneumoniae, 144 h
E. coli E1 = assay: MIC against veterinary bacteria in vitro; conditions: Escherichia coli, E1, 18 h
Method: as §1

M. hyorhinis ATCC 23234 = assay: MIC against mycoplasma in vitro; type: cell-based; conditions: Mesomycoplasma hyorhinis, ATCC23234, 144 h
M. suipneumoniae TAM 6N = assay: MIC against mycoplasma in vitro; type: cell-based; conditions: Mesomycoplasma hyopneumoniae, TAM6N, 144 h
S. typhimurium S18 = assay: MIC against veterinary bacteria in vitro; conditions: Salmonella enterica, TYPHIMURIUM, 18 h
Method: as §1

M. suipneumoniae JF 435 = assay: MIC against mycoplasma in vitro; type: cell-based; conditions: Mesomycoplasma hyopneumoniae, JF435, 144 h
[6] = system: M. bovigenitalium ATCC 14173; assay: MIC against mycoplasma in vitro; type: cell-based; conditions: 144 h
S. dublin S7 = assay: MIC against veterinary bacteria in vitro; conditions: Salmonella enterica, S7, 18 h
Method: as §1

Strep. agalactiae 2788-B = assay: MIC against human bacteria in vitro; type: cell-based; conditions: Streptococcus agalactiae; Strep. agalactiae 2788-B; 5% chocolated horse blood agar, 18 hours; read-out: MIC
M. suipneumoniae UCD 1 = assay: MIC against mycoplasma in vitro; type: cell-based; conditions: Mesomycoplasma hyopneumoniae, UCD1, 144 h
Bord. bronchiseptica B08 = assay: MIC against veterinary bacteria in vitro; conditions: Bordetella bronchiseptica, B08, 18 h
Method: as §1

Strep. spp. 64/848-C = assay: MIC against human bacteria in vitro; type: cell-based; conditions: Strep. spp. 64/848-C; 5% chocolated horse blood agar, 18 hours; read-out: MIC
E. coli NCTC 10418 = assay: MIC against veterinary bacteria in vitro; conditions: Escherichia coli, NCTC10418, 18 h
Method: as §1

[7] = system: Haemophilus influenzae Wy21; assay: MIC against human bacteria in vitro; type: cell-based; conditions: Haemophilus influenzae Wy21; 5% chocolated horse blood agar, 18 hours; read-out: MIC
[8] = system: M. suipneumoniae ATCC 25095; assay: MIC against mycoplasma in vitro; type: cell-based; conditions: Mesomycoplasma hyopneumoniae, ATCC25095, 144 h
Staph. aureus W2827 = assay: MIC against human bacteria in vitro; type: cell-based; conditions: Staphylococcus aureus; Staph. aureus W2827; 5% chocolated horse blood agar, 18 hours; read-out: MIC
[9] = system: Strep. suis (group D) SPS11; assay: MIC against veterinary bacteria in vitro; conditions: Streptococcus suis, 18 h
Method: as §1

M. suipneumoniae NB12 = assay: MIC against mycoplasma in vitro; type: cell-based; conditions: Mesomycoplasma hyopneumoniae
Strep. agalactiae SPA1 = assay: MIC against veterinary bacteria in vitro; conditions: Streptococcus agalactiae, SPA1, 18 h
Method: as §1

Sarcina lutea 8340 = assay: MIC against human bacteria in vitro; type: cell-based; conditions: Micrococcus luteus; Sarcina lutea 8340; 5% chocolated horse blood agar, 18 hours; read-out: MIC
Past. multocida PA2 = assay: MIC against veterinary bacteria in vitro; conditions: Pasteurella multocida, PA2, 18 h
Method: as §1

[10] = M. suipneumoniae NCTC 10110, 6 days, 37° C., read-out: MIC
[11] = Strep. pneumoniae CN33, 5% chocolated horse blood agar, 18 hours, read-out: MIC
[12] = E. coli ESS, 5% chocolated horse blood agar, 18 hours, read-out: MIC
[13] = M. suipneumoniae MS 16, 6 days, 37° C., read-out: MIC
[14] = M. suipneumoniae HK(2), 6 days, 37° C., read-out: MIC
[15] = M. hyorhinis ATCC 23234, 6 days, 37° C., read-out: MIC
[16] = M. suipneumoniae TAM 6N, 6 days, 37° C., read-out: MIC
[17] = M. suipneumoniae JF 435, 6 days, 37° C., read-out: MIC
[18] = M. bovigenitalium ATCC 14173, 6 days, 37° C., read-out: MIC
[19] = M. suipneumoniae UCD 1, 6 days, 37° C., read-out: MIC
[20] = M. suipneumoniae ATCC 25095, 6 days, 37° C., read-out: MIC
[21] = 144 h, M. suipneumoniae NB12, Friis broth, 0.9% agarose, 6 days, 37° C., read-out: MIC

SMILES	MIC (Bord. bronchiseptica B09) [mg/L]	MIC [1, 10] [mg/L]	MIC [2] [mg/L]	MIC [3] [mg/L]	MIC [4] [mg/L]	MIC (M. pneumoniae ATCC 15492) [mg/L]	MIC [5] [mg/L]	MIC (Staph. aureus Russell) [mg/L]	MIC (Strep. pneumoniae CN33; [11]) [mg/L]	MIC (M. gallisepticum S6) [mg/L]	MIC (Staph. aureus Oxford) [mg/L]	MIC (E. coli E1) [mg/L]	MIC (S. typhimurium S18) [mg/L]	MIC (S. dublin S7) [mg/L]	MIC (Strep. agalactiae 2788-B) [mg/L]	MIC (Bord. bronchiseptica B08) [mg/L]	MIC (E. coli NCTC 10418) [mg/L]	MIC [7] [mg/L]	MIC (Staph. aureus W2827) [mg/L]	MIC [9] [mg/L]	also measured
C/C(=C\c1cc(-c2ccccc2)no1)C[C@@H]1OC[C@H](C[C@@H]2O[C@H]2[C@@H](C)[C@H](C)O)[C@@H](O)[C@H]1O [Example 31, 5-(1-Normon-2-yl)-3-phenylisoxazole A]	80 (≈ 180 µM)	10 (≈ 22.5 µM)	64 (≈ 144 µM)	10 (≈ 22.5 µM)	> 128	> 10	> 80	128 (≈ 289 µM)	> 128	> 10	20 (≈ 45.1 µM)	> 80	> 80	> 80	> 128	> 80	> 80	16 (≈ 36.1 µM)	128 (≈ 289 µM)	> 80	MIC (E. coli ESS; [12]): 64 mg/L (≈ 144 µM); MIC (M. suipneumoniae MS 16; [13]): 5 mg/L (≈ 11.3 µM); MIC (M. suipneumoniae HK(2); [14]): 10 mg/L (≈ 22.5 µM); MIC (M. hyorhinis ATCC 23234; [15]): 5 mg/L (≈ 11.3 µM); MIC (M. suipneumoniae TAM 6N; [16]): 10 mg/L (≈ 22.5 µM); MIC (M. suipneumoniae JF 435; [17]): 10 mg/L (≈ 22.5 µM); MIC [6, 18]: 5 mg/L (≈ 11.3 µM); MIC (M. suipneumoniae UCD 1; [19]): 10 mg/L (≈ 22.5 µM); MIC (Strep. spp. 64/848-C): > 128 mg/L; MIC [8, 20]: 5 mg/L (≈ 11.3 µM); MIC (M. suipneumoniae NB12; [21]): 10 mg/L (≈ 22.5 µM)
C/C(=C\c1cc(-c2ccccc2)on1)C[C@@H]1OC[C@H](C[C@@H]2O[C@H]2[C@@H](C)[C@H](C)O)[C@@H](O)[C@H]1O [Example 34, 3-(1-Normon-2-yl)-5-phenylisoxazole A]	40 (≈ 90.2 µM)		64 (≈ 144 µM)	2.5 (≈ 5.64 µM)	> 128	5 (≈ 11.3 µM)	> 80	16 (≈ 36.1 µM)	64 (≈ 144 µM)	> 10	5 (≈ 11.3 µM)	> 80	> 80	> 80	64 (≈ 144 µM)	> 80	> 80	2 (≈ 4.51 µM)	16 (≈ 36.1 µM)	80 (≈ 180 µM)	MIC [1]: 2.5 mg/L (≈ 5.64 µM); MIC (Strep. agalactiae SPA1): 40 mg/L (≈ 90.2 µM); MIC (E. coli ESS; [12]): 16 mg/L (≈ 36.1 µM); MIC (M. suipneumoniae MS 16): 1 mg/L (≈ 2.25 µM); MIC (M. suipneumoniae HK(2)): 2.5 mg/L (≈ 5.64 µM); MIC (M. hyorhinis ATCC 23234): 2.5 mg/L (≈ 5.64 µM); MIC (M. suipneumoniae TAM 6N): 2.5 mg/L (≈ 5.64 µM); MIC (M. suipneumoniae JF 435): 2.5 mg/L (≈ 5.64 µM); MIC [6]: 1 mg/L (≈ 2.25 µM); MIC (M. suipneumoniae UCD 1): 2.5 mg/L (≈ 5.64 µM); MIC (Strep. spp. 64/848-C): 64 mg/L (≈ 144 µM); MIC [8]: 1 mg/L (≈ 2.25 µM); MIC (M. suipneumoniae NB12; NB12, 144 h): 2.5 mg/L (≈ 5.64 µM)
C/C(=C\c1nc(C)c(-c2ccccc2)o1)C[C@@H]1OC[C@H](C[C@@H]2O[C@H]2[C@@H](C)[C@H](C)O)[C@@H](O)[C@H]1O [Example 40, 4-Methyl-2-(1-normon-2-yl)-5-phenyloxazole A]	> 80	> 10	100 (≈ 219 µM)	80 (≈ 175 µM)	> 100	> 10	> 80	100 (≈ 219 µM)		> 10	80 (≈ 175 µM)	> 80	> 80	> 80	> 100	> 80	> 80	50 (≈ 109 µM)	> 100	> 80	MIC (Strep. agalactiae SPA1): > 80 mg/L; MIC (Strep. pneumoniae CN33; CN33, 18 h): > 100 mg/L; MIC (Sarcina lutea 8340): > 100 mg/L; MIC (E. coli ESS; 18 h): 100 mg/L (≈ 219 µM); MIC (M. suipneumoniae MS 16; [13]): > 10 mg/L; MIC (M. suipneumoniae HK(2); [14]): > 10 mg/L; MIC (M. hyorhinis ATCC 23234; [15]): > 10 mg/L; MIC (M. suipneumoniae TAM 6N; [16]): > 10 mg/L; MIC (M. suipneumoniae JF 435; [17]): > 10 mg/L; MIC (Past. multocida PA2): 80 mg/L (≈ 175 µM); MIC [6, 18]: 10 mg/L (≈ 21.9 µM); MIC (M. suipneumoniae UCD 1; [19]): > 10 mg/L; MIC [8, 20]: > 10 mg/L; MIC (M. suipneumoniae NB12; [21]): > 10 mg/L

From US5041567A, “Antibacterial monic acid derivatives” (Beecham Group plc, priority 1982, dated 1991)
